Experiments:
Format in all cases: physicochemical
[1] = Stability of Form C (Tables 5A-5F)
[2] = Bulk stability of Form C over 1 week; details: for Bulk (XRPD) / Color / Purity, Bulk (HPLC): Solid state
Procedure: Bulk stability of Form C was evaluated at 25° C./92% RH in an open container, at 40° C./75% RH in an open container and at 60° C. in a tight container over 1 week.

[3] = Hygroscopicity by dynamic vapor sorption (DVS)
Procedure: Dynamic vapor sorption (DVS) was performed on an Intrinsic, Advantage or Adventure with an oven temperature of 25° C. using water as a solvent. The sample mass was about 5-10 mg using the following method: • Cycle: 40-0-95-0-40% RH • Stage Step: 10% • Equilibrium: 0.002 dm/dt (%/min) • Minimum dm/dt stability duration: 60 min • Maximum dm/dt stage time: 360 min. Analysis of Polymorphs
Hygroscopicity of Form C was evaluated by dynamic vapor sorption (DVS) test at 25° C. Form C is non-hygroscopic below 90% relative humidity (RH). Form C absorbs about 0.2% water in 95% RH at 25° C.

[4] = 25° C./92% RH, open container, 1 week
[5] = 40° C./75% RH, open container, 1 week
[6] = 60° C., tight container, 1 week

Cc1nc(-c2c[nH]c3c(C#N)cccc23)cnc1OCC(C)(C)O [Form C, 3-(5-(2-hydroxy-2-methylpropoxy)-6-methylpyrazin-2-yl)-1H-indole-7-carbonitrile]
0.77 area %: Impurities, HPLC: RRT 1.07 ([1]; 25° C./60% RH, 03 Month) | Impurities, HPLC: RRT 1.07 ([1]; 25° C./60% RH, Initial) | Impurities, HPLC: RRT 1.07 ([1]; 40° C./75% RH, 03 Month) | Impurities, HPLC: RRT 1.07 ([1]; 40° C./75% RH, Initial)
99.2%: Purity, Bulk (HPLC) [2, 4] | Purity, Bulk (HPLC) [2, 6] | Initial purity ([2]; before stress)
non-hygroscopic: Hygroscopicity ([3]; DVS at 25° C., below 90% relative humidity (RH))
<0.05 area %: Impurities, HPLC: A ([1]; 25° C./60% RH, 01 Month) | Impurities, HPLC: B ([1]; 25° C./60% RH, 01 Month) | Impurities, HPLC: C ([1]; 25° C./60% RH, 01 Month) | Impurities, HPLC: D ([1]; 25° C./60% RH, 01 Month) | Impurities, HPLC: SM1 ([1]; 25° C./60% RH, 01 Month) | Impurities, HPLC: SM2 ([1]; 25° C./60% RH, 01 Month) | Impurities, HPLC: Unidentified impurity ([1]; 25° C./60% RH, 01 Month) | Impurities, HPLC: A ([1]; 25° C./60% RH, 03 Month) | Impurities, HPLC: B ([1]; 25° C./60% RH, 03 Month) | Impurities, HPLC: C ([1]; 25° C./60% RH, 03 Month) | Impurities, HPLC: D ([1]; 25° C./60% RH, 03 Month) | Impurities, HPLC: SM1 ([1]; 25° C./60% RH, 03 Month) | Impurities, HPLC: SM2 ([1]; 25° C./60% RH, 03 Month) | Impurities, HPLC: Unidentified impurity ([1]; 25° C./60% RH, 03 Month) | Impurities, HPLC: A ([1]; 25° C./60% RH, 06 Month) | Impurities, HPLC: B ([1]; 25° C./60% RH, 06 Month) | Impurities, HPLC: C ([1]; 25° C./60% RH, 06 Month) | Impurities, HPLC: D ([1]; 25° C./60% RH, 06 Month) | Impurities, HPLC: SM1 ([1]; 25° C./60% RH, 06 Month) | Impurities, HPLC: SM2 ([1]; 25° C./60% RH, 06 Month) | Impurities, HPLC: Unidentified impurity ([1]; 25° C./60% RH, 06 Month) | Impurities, HPLC: A ([1]; 25° C./60% RH, 09 Month) | Impurities, HPLC: B ([1]; 25° C./60% RH, 09 Month) | Impurities, HPLC: C ([1]; 25° C./60% RH, 09 Month) | Impurities, HPLC: D ([1]; 25° C./60% RH, 09 Month) | Impurities, HPLC: SM1 ([1]; 25° C./60% RH, 09 Month) | Impurities, HPLC: SM2 ([1]; 25° C./60% RH, 09 Month) | Impurities, HPLC: Unidentified impurity ([1]; 25° C./60% RH, 09 Month) | Impurities, HPLC: A ([1]; 25° C./60% RH, 12 Month) | Impurities, HPLC: B ([1]; 25° C./60% RH, 12 Month) | Impurities, HPLC: C ([1]; 25° C./60% RH, 12 Month) | Impurities, HPLC: D ([1]; 25° C./60% RH, 12 Month) | Impurities, HPLC: SM1 ([1]; 25° C./60% RH, 12 Month) | Impurities, HPLC: SM2 ([1]; 25° C./60% RH, 12 Month) | Impurities, HPLC: Unidentified impurity ([1]; 25° C./60% RH, 12 Month) | Impurities, HPLC: A ([1]; 25° C./60% RH, Initial) | Impurities, HPLC: B ([1]; 25° C./60% RH, Initial) | Impurities, HPLC: C ([1]; 25° C./60% RH, Initial) | Impurities, HPLC: D ([1]; 25° C./60% RH, Initial) | Impurities, HPLC: SM1 ([1]; 25° C./60% RH, Initial) | Impurities, HPLC: SM2 ([1]; 25° C./60% RH, Initial) | Impurities, HPLC: Unidentified impurity ([1]; 25° C./60% RH, Initial) | Impurities, HPLC: A ([1]; 40° C./75% RH, 01 Month) | Impurities, HPLC: B ([1]; 40° C./75% RH, 01 Month) | Impurities, HPLC: C ([1]; 40° C./75% RH, 01 Month) | Impurities, HPLC: D ([1]; 40° C./75% RH, 01 Month) | Impurities, HPLC: SM1 ([1]; 40° C./75% RH, 01 Month) | Impurities, HPLC: SM2 ([1]; 40° C./75% RH, 01 Month) | Impurities, HPLC: Unidentified impurity ([1]; 40° C./75% RH, 01 Month) | Impurities, HPLC: A ([1]; 40° C./75% RH, 03 Month) | Impurities, HPLC: B ([1]; 40° C./75% RH, 03 Month) | Impurities, HPLC: C ([1]; 40° C./75% RH, 03 Month) | Impurities, HPLC: D ([1]; 40° C./75% RH, 03 Month) | Impurities, HPLC: SM1 ([1]; 40° C./75% RH, 03 Month) | Impurities, HPLC: SM2 ([1]; 40° C./75% RH, 03 Month) | Impurities, HPLC: Unidentified impurity ([1]; 40° C./75% RH, 03 Month) | Impurities, HPLC: A ([1]; 40° C./75% RH, 06 Month) | Impurities, HPLC: B ([1]; 40° C./75% RH, 06 Month) | Impurities, HPLC: C ([1]; 40° C./75% RH, 06 Month) | Impurities, HPLC: D ([1]; 40° C./75% RH, 06 Month) | Impurities, HPLC: SM1 ([1]; 40° C./75% RH, 06 Month) | Impurities, HPLC: SM2 ([1]; 40° C./75% RH, 06 Month) | Impurities, HPLC: Unidentified impurity ([1]; 40° C./75% RH, 06 Month) | Impurities, HPLC: A ([1]; 40° C./75% RH, Initial) | Impurities, HPLC: B ([1]; 40° C./75% RH, Initial) | Impurities, HPLC: C ([1]; 40° C./75% RH, Initial) | Impurities, HPLC: D ([1]; 40° C./75% RH, Initial) | Impurities, HPLC: SM1 ([1]; 40° C./75% RH, Initial) | Impurities, HPLC: SM2 ([1]; 40° C./75% RH, Initial) | Impurities, HPLC: Unidentified impurity ([1]; 40° C./75% RH, Initial)
Form C: Bulk (XRPD) [2, 4] | Bulk (XRPD) [2, 5] | Bulk (XRPD) [2, 6]
99.1 wt %: Assay, HPLC ([1]; 40° C./75% RH, 06 Month)
98.7 wt %: Assay, HPLC ([1]; 40° C./75% RH, 03 Month)
stable: Stability ([1]; conditions where the temperature and relative humidity are altered)
99.1%: Purity, Bulk (HPLC) [2, 5]
still in Form C: Form after the DVS test ([3]; DVS at 25° C.)
99.3 area %: Purity, HPLC ([1]; 25° C./60% RH, 01 Month) | Purity, HPLC ([1]; 25° C./60% RH, 06 Month) | Purity, HPLC ([1]; 25° C./60% RH, 09 Month) | Purity, HPLC ([1]; 25° C./60% RH, 12 Month) | Purity, HPLC ([1]; 40° C./75% RH, 01 Month) | Purity, HPLC ([1]; 40° C./75% RH, 06 Month)
0.72 area %: Impurities, HPLC: RRT 1.07 ([1]; 25° C./60% RH, 09 Month)
0.73 area %: Impurities, HPLC: RRT 1.07 ([1]; 25° C./60% RH, 06 Month) | Impurities, HPLC: RRT 1.07 ([1]; 40° C./75% RH, 06 Month)
physically and chemically stable: Bulk stability ([2]; 25° C./92% RH open, 40° C./75% RH open, 60° C. tight container, 1 week)
0.74 area %: Impurities, HPLC: RRT 1.07 ([1]; 25° C./60% RH, 12 Month)
99.2 area %: Purity, HPLC ([1]; 25° C./60% RH, 03 Month) | Purity, HPLC ([1]; 25° C./60% RH, Initial) | Purity, HPLC ([1]; 40° C./75% RH, 03 Month) | Purity, HPLC ([1]; 40° C./75% RH, Initial)
0.70 area %: Impurities, HPLC: RRT 1.07 ([1]; 40° C./75% RH, 01 Month)
99.4 wt %: Assay, HPLC ([1]; 25° C./60% RH, 09 Month) | Assay, HPLC ([1]; 25° C./60% RH, 12 Month) | Assay, HPLC ([1]; 40° C./75% RH, Initial)
0.71 area %: Impurities, HPLC: RRT 1.07 ([1]; 25° C./60% RH, 01 Month)
about 0.2%: Water absorbed ([3]; DVS, 95% RH at 25° C.)
<0.05 wt %: Water content ([1]; 25° C./60% RH, 01 Month) | Water content ([1]; 25° C./60% RH, 03 Month) | Water content ([1]; 25° C./60% RH, 06 Month) | Water content ([1]; 25° C./60% RH, 09 Month) | Water content ([1]; 25° C./60% RH, 12 Month) | Water content ([1]; 25° C./60% RH, Initial) | Water content ([1]; 40° C./75% RH, 01 Month) | Water content ([1]; 40° C./75% RH, 03 Month) | Water content ([1]; 40° C./75% RH, 06 Month) | Water content ([1]; 40° C./75% RH, Initial)
No color change: Color [2, 4] | Color [2, 5] | Color [2, 6]
99.7 wt %: Assay, HPLC ([1]; 40° C./75% RH, 01 Month)

From patent US12168650B2, “Crystalline forms of 3-(5-(2-hydroxy-2-methylpropoxy)-6-methylpyrazin-2-yl)-1H-indole-7-carbonitrile” (NIDO BIOSCIENCES, INC., priority 2022, dated 2024)
